According to patent US20100256332A1, “GLP-1 Fusion Peptides, Their Production and Use” (BIOCOMPATIBLES UK LTD, priority 2007, published 2010):
Where no end group is shown, it is not given here.

Experiments:
[1] = In vitro human plasma stability of GLP-1 CM peptides; conditions: 20 ng/ml peptide, 37° C., 3 hours, GLP-1 (Active) ELISA, versus native GLP-1(7-37)
Source text: Dipeptidylpeptidase activity of the plasma was inhibited by an DPP-IV inhibitor (#DPP4, Biotrend).

[2] = tested on: diabetic C57BL/KsJ@Rj-db (db/db) mice; experiment: Dose-efficacy study in diabetic mice; type: in vivo, mouse; conditions: for fall in plasma glucose @1 h: 1 hour after single s.c. injection of 1.1-3.0 nmol peptide; for fall in plasma glucose @1 h / fall in plasma glucose @4 h: versus control; for fall in plasma glucose @4 h: 4 hours after single s.c. injection of 1.1-3.0 nmol peptide; for plasma glucose ED50: single s.c. dose, percentage decrease of blood glucose at 1h
Procedure: A sixth group was treated with saline only. 7 animals were treated per group. Blood glucose was determined from tail bleeds directly before, 1 hour and 4 hours after injection.
The results are shown in dose-response curves according to FIG. 8 (FIG. 8A (GLP-1), FIG. 8B (CM1), FIG. 8C(CM3) and FIG. 8D (CM3-ANA01)). For every test substance a graph was prepared with the percentage difference of the blood glucose in relation to the start value for the different concentrations. […] Both models are sigmoidal fit models suitable for dose response evaluation. For every peptide the plasma glucose ED50 values (single s.c. dose in μg/mouse) have been determined from the percentage decrease of blood glucose.
The fall in plasma glucose and the corresponding significance levels are given for the time period 1 hour (@1 h) and 4 hours (@4h) after peptide injection. Differences have been observed in the long-term efficacy of the peptides.

[3] = tested on: C57BL/KsJ@Rj-db (db/db) mice; experiment: Long-term treatment of db/db mice; type: in vivo, mouse; conditions: for non fasted blood glucose level 1h after s.c. peptide injection, compared to control: tail bleed 1 hour after injection; for fasted blood glucose level 18h after peptide injection: 12-hour overnight fast, 18 hours after s.c. injection; for food consumption: weekly, 122 day treatment period, compared to the control
Source text: The regimen was continued for 18 weeks. From week 12 to 18 treatment was done twice a day in 6 of 12 animals per group. Various parameters of the mice were investigated, i.e. health status (1), body weight (2), food consumption (3), blood glucose (4), glucose tolerance test (5), insulin data (6), glycosylated hemoglobin (7), pathology (8), and restimulation of T cells (9). • Health status (1) was good in all groups, no side effects of the treatment have been seen. • Body weight (2) was lower in all treated groups after 18 weeks of treatment (FIG. 9). […] The relative body weight increase of 12 animals per group after a treatment of 122 days is plotted. […] Non-fasted blood glucose level (1 hour after peptide injection) is shown in FIG. 11A, i.e. the effect of a treatment with saline (A), CM1 (B), CM3-ANA01 (C) or exendin (D) on the non-fasted blood glucose levels. Blood glucose was measured from a tail bleed 1 hour after s.c. injection of saline (A) or the peptides CM1 (B), CM3-ANA01 (C) or exendin (D) in a concentration of 24 nmol/kg. Compared to control non fasted blood glucose level 1h after s.c. peptide injection is reduced to 55% in group B, 51% in group C and 60% in group D (FIG. 11B). The blood glucose decrease in the treated groups treated groups is highly significant (p<0.0001). Fasted blood glucose level (18 hours after peptide injection) are shown in FIG. 11C, i.e. the effect of a treatment with saline (A), CM1 (B), CM3-ANA01 (C) or exendin (D) on the fasted blood glucose levels. Blood glucose was measured from a tail bleed after a 12-hour overnight fast 18 hours after s.c. injection of the test substances. Fasted blood glucose level 18h after peptide injection is reduced in the CM1 and CM3-ANA01 group. • An i.p. glucose tolerance test (5) (IPGTT) was conducted after 8 weeks of treatment on mice of the groups A-D. […] Blood glucose has been further on determined 15, 30, 45, 60, 90 and 120 minutes after glucose injection. A significant normalization of glucose tolerance was shown in all treated groups (FIG. 12A). In FIG. 12A absolute blood glucose levels during an i.p. glucose tolerance test (IPGTT) after 8 weeks of treatment with saline (A), CM1 (B), CM3-ANA01 (C) or exendin (D) is shown (mean values of each group (n=12)). • Another presentation of the data presented by FIG. 12A of the blood glucose tolerance test is given in FIG. 12B. Relative blood glucose levels during an i.p. glucose tolerance test (IPGTT) after 8 weeks of treatment with saline (A), CM1 (B), CM3-ANA01 (C) or exendin (D) normalized on the starting blood glucose level (100%). • Insulin levels (6) were determined from mice after a 12 hour overnight fastening period. […] Directly after sampling blood samples have been treated with a protease inhibitor cocktail to avoid insulin degradation. The serum was analysed for insulin with the Insulin Mouse Ultrasensitive ELISA (Cat.# EIA-3440, DRG). Significance has been determine with Student's t-test. • Glycosylated hemoglobin (7) is formed by excess plasma glucose binding to hemoglobin in red blood cells (RBC). Since RBCs have a 120-day lifespan, measurements of the glycolylated hemoglobin gives a longer-term indication of glucose control and is seen as a better indicator than plasma glucose levels. Whole blood was collected from the retro-orbital sinus and analyzed with the Enzymatic HbA1c Test Kit (#DZ121A, Diazyme) to determine the glycosylated hemoglobin levels. […] The mean value of all animals per group (n=12) is given. […] Therefore, the spleen of 8 animals per group was explanted, T-cells isolated and restimulated with different concentrations of the corresponding test substance. Compared to non-treated controls no significant increase in peptide restimulated T-cell proliferation was found. […] The stimulation index (SI) was calculated as the quotient of the response in the presence of the respective peptide and the response in the absence of peptides. […]

[4] = human, 1 μM, pH 7.8
Source text: (§1) Results are from triplicates in at least two independent experiments.

[5] = In vitro plasma stability, kinetic test method; conditions: 1 μM peptide, 10% human plasma, 37° C., 0-9 hours
Source text: as §1

[6] = tested on: type II diabetic mice (C57BUKs-Lepr db/db); experiment: In vivo bioactivity in type II diabetic mice; design: species or system mouse; conditions: 5 μg peptide s.c. twice a day, Day 2, 4, 7, 10, overnight fasted
Procedure: 11-week-old type II diabetic mice (C57BUKs-Lepr^db/db, Harlan) were treated with 5 μg peptide by subcutaneous injection twice a day at 9 a.m. and 5 p.m. (n=5 per group).
Blood glucose was measured before (day 0) and after treatment with GLP^CM peptides (Day 2, 4, 7, 10) at 10 a.m. after an overnight fastening period. Data were presented in relation to blood glucose levels measured at day 0.
Best results were obtained with recombinant SEQ ID No.:6 (CM1) and synthetic SEQ ID No.:8 (CM3). In FIG. 5 (y-axis) the relative effect of the treatment is shown. Blood glucose at day=0 was set to 1. Untreated animals undergo continuous increase in blood glucose level over time, whereas animals treated with inventive peptides display grosso modo a continuous decrease of the blood glucose level over time.

BALB/c mice = experiment: Immunogenicity study in BALB/c mice
Procedure: The trial was done in BALB/c mice receiving 5 repeated injections (70 μg peptide/dose, i.v.) over 22d (n=5).
Spleens of the treated and control mice were explanted, T-cells isolated and stimulated with increasing amounts of antigene. Proliferative recall response is measured.

[7] = 5 repeated injections, 70 μg peptide/dose, i.v., over 22d, BALB/c mice

Substance	stability in human plasma in vitro (active GLP) [1]	fall in plasma glucose @1 h [2]	fall in plasma glucose @4 h [2]	plasma glucose ED50 [2] [μg/mouse]	non fasted blood glucose level 1h after s.c. peptide injection, compared to control ([3]; 24 nmol/kg s.c.) [%]	fasted blood glucose level 18h after peptide injection [3]	relative body weight increase ([3]; after a treatment of 122 days, 24 nmol/kg s.c., p<0.001)	food consumption ([3]; p<0.001)	active GLP-1 left after 9h plasma exposure, % of the 0 h value [4] [%]	in vitro plasma stability, comparison in words [5]	anti-hyperglycemia effect (blood glucose in relation to day 0) ([6]; listed as SEQ ID No.:6)	anti-hyperglycemia effect (blood glucose in relation to day 0) ([6]; listed as recombinant SEQ ID No.:6)	T-cell antibody response and antibody titer (BALB/c mice; [7])	toxicity (BALB/c mice; [7])	clinically relevant immunogenicity (BALB/c mice; immunogenicity study in mice)
HAEGTFTSDVSSYLEGQAAKEFIAWLVKGRGRRDFPEEVAIAEELG [CM3, GLP-1(7-37)-IP2]	significantly stabilized	–	–	–	–	–	–	–	–	–	–	–	–	–	–
HAEGTFTSDVSSYLEGQAAKEFIAWLVKGRGAADFPEEVAIAEELG [CM3-ANA01]	–	62% ± 12% @1 h	18% ± 11% @4 h	0.55	51	reduced	significantly lower	significantly lower	84	higher plasma stability than CM3	–	–	–	–	–
GLP-1 (7-37)-IP2-RR-GLP1(7-37) [CM1]	significantly stabilized	50% ± 14% @1 h	0% @4 h	0.61	55	reduced	–	significantly lower	–	–	anti-hyperglycemia effect	Best results	minimal	no toxicity	absence of any clinically relevant immunogenicity
